Measured values from patent US20090023186A1, “USE OF VALPROIC ACID FOR ENHANCING PRODUCTION OF RECOMBINANT PROTEINS IN MAMMALIAN CELLS” (EXCELLGENE SA, priority 2007, published 2009).

Tested on: CHO DG44 cells
Experiment: Transient IgG expression, batch titer by ELISA, VPA concentration series (Example 1)
Type: cell-based, Chinese Hamster
Conditions: for Fold increase over control / Batch titer: IgG, day 5 after transfection; for Batch titer: 37° C.
Method: 10 million suspension-adapted HEK293E cells were resuspended in 0.5 ml of Ex-Cell 293 HEK 293 serum-free medium with 4 mmol/l L-glutamine (Cat. No. 14571C-1000 M; Lot No. 6A0093; SAFC Biosciences, Lenexa, Kans., USA, “Ex-Cell” medium; note: “Ex-Cell” medium-as used herein-refers to a medium comprising 4 mmol/l L-glutamine) in a 50-ml filter tube each (TPP AG, Trasadingen, Switzerland; Cat. No. 87050, Lot 20050174). In a separate set, 10 million suspension-adapted CHO DG44 cells were resuspended in 0.5 ml of ProCHO5 serum-free medium with 4 mmol/[…] hypoxanthine and 0.194 g/l thymidine (BioWhittaker (Lonza), Belgium; Cat. No. BE12-[…]; Lot No. 7 MB0040; “ProCHO5” medium; note: “ProCHO5” medium-as used herein-refers to a medium comprising 4 mmol/[…] hypoxanthine and 0.194 g/l thymidine) in a 50-ml filter tube each (TPP AG, Trasadingen, Switzerland; Cat. No. 87050, Lot 20050174). Then 12.5 μg plasmid DNA at a concentration of 1 μg/μl was added in each tube with the following composition 50% (6.25 μg) p-LC (SEQ ID NO: 1) 50% (6.25 μg) p-HC (SEQ ID NO: 3). Plasmid p-LC comprises the genetic information for the production of the light chain of an IgG antibody, plasmid p-HC comprises the genetic information for the production of the heavy chain of an IgG antibody. The particular vector constructs used in the present invention can also be obtained from the inventors. The inventors can be contacted via e-mail at […]. Moreover, commercial services do exist that produce any desired nucleotide sequence even comprising several kilobase pairs including complete expression cassettes in plasmid backgrounds (e.g., Invitrogen, Carlsbad, USA; Geneart, Germany.) Thus, providing the genetic sequence information of the plasmids should enable one of ordinary skill in the art to order the plasmids of the present invention at one of the commercial services listed. After shortly mixing the DNA with the cells by gentle shaking, 25 μg of 25-kd linear polyethyleneimine (“PEI”; Polysciences, Eppelheim, Germany; [2]) were added at a concentration of 1 μg/μl to each of the tubes. After shortly mixing by gentle shaking, the filter tubes containing the cells together with the DNA and PEI were transferred into an orbital shaker (Kühner Shaker Cabinet ISF-4-W, “Kühner shaker”, Kühner AG, Birsfelden, Switzerland), and the cells were incubated for 4 hours at 37° C. in a 5% CO2 atmosphere under shaking at 180 rpm. After that time, 4.5 ml of Ex-Cell medium were added to each of the filter tubes containing HEK 293 cells and 4.5 ml of Pro-CHO5 were added to each of the filter tubes containing CHO DG44 cells. Then, valproic acid was added to each of the tubes at the corresponding final concentration. The cells then were returned into the Kühner shaker and incubated at 37° C. in a 5% CO2 atmosphere under shaking at 180 rpm. […] The ELISA was performed as published in prior art. In short, Goat anti-human kappa light chain IgG (Biosource) was used for coating the ELISA-plates, and with AP-conjugated goat anti-human gamma chain IgG (Biosource) the synthesized IgG1 was detected. NPP was used as a substrate for the alkaline phosphatase. Absorption was measured at 405 nm against 490 nm using a microplate reader (SPECTRAmaxTM340; Molecular Devices, Palo Alto, Calif., USA).

`CCCC(CCC)C(=O)O` [VPA, valproic acid] was tested, and the “Fold increase over control” value (0.05 mmol/l final VPA) was 1 fold, the Batch titer (0.05 mmol/l final VPA) was 7.4 ± 1.1 mg/L and the “Fold increase over control” value (0.1 mmol/l final VPA) was 1.3 fold. The Batch titer (0.1 mmol/l final VPA) was 10.0 ± 1.5 mg/L, the “Fold increase over control” value (0.2 mmol/l final VPA) was 1.8 fold and the Batch titer (0.2 mmol/l final VPA) was 13.7 ± 1.2 mg/L. The “Fold increase over control” value (0.5 mmol/l final VPA) was 2.1 fold, the Batch titer (0.5 mmol/l final VPA) was 16.3 ± 1.3 mg/L and the “Fold increase over control” value (1 mmol/l final VPA) was 1.9 fold. For the same compound, the Batch titer (1 mmol/l final VPA) was 14.4 ± 1.2 mg/L, the “Fold increase over control” value (2 mmol/l final VPA) was 1.3 fold and the Batch titer (2 mmol/l final VPA) was 10.0 ± 0.9 mg/L. For the same compound, the “Fold increase over control” value (3 mmol/l final VPA) was 1.0 fold, the Batch titer (3 mmol/l final VPA) was 7.4 ± 1.2 mg/L and the optimal final concentration (for batch titer, CHO DG44 cells, day 5) was “around 0.5 mmol/l”.
